In ChEMBL document CHEMBL4043139, “Fluoro and pentafluorothio analogs of the antitumoral curcuminoid EF24 with superior antiangiogenic and vascular-disruptive effects” (Bioorg Med Chem, 2017):

Tests used:
DLD-1 = experiment: Cytotoxicity against human DLD1 cells after 72 hrs by MTT assay; type: functional, cell-based; conditions: for IC50: DLD-1, 72 h
HCT-116 = experiment: Cytotoxicity against human HCT116 cells after 72 hrs by MTT assay; type: functional, cell-based; conditions: for IC50: HCT-116, 72 h
U-87MG ATCC = experiment: (§1) Cytotoxicity against human U87 cells after 72 hrs by MTT assay; type: functional, cell-based
[1] = as §1; type: functional, cell-based, U-87MG ATCC; conditions: U-87 MG
[2] = (§2) Cytotoxicity against human KB-V1/Vbl cells after 72 hrs by MTT assay; type: functional, cell-based
KB-V1/Vbl = experiment: as §2; type: functional, cell-based
PANC-1 = experiment: Cytotoxicity against human PANC1 cells after 72 hrs by MTT assay; type: functional, cell-based; conditions: for IC50: PANC-1, 72 h
518A2 = experiment: Cytotoxicity against human 518A2 cells after 72 hrs by MTT assay; type: functional, cell-based; conditions: for IC50: 518A2, 72 h
HT-29 = experiment: Cytotoxicity against human HT-29 cells after 72 hrs by MTT assay; type: functional, cell-based; conditions: for IC50: HT-29, 72 h
[3] = (§3) Cytotoxicity against human MCF7/Topo cells after 72 hrs by MTT assay; type: functional, cell-based
MCF7/Topo = experiment: as §3; type: functional, cell-based

SMILES	Activity (DLD-1)	IC50 (DLD-1) [nM]	Activity (HCT-116)	IC50 (HCT-116) [nM]	Activity (U-87MG ATCC)	IC50 [1] [nM]	IC50 [2] [nM]	Activity (KB-V1/Vbl)	Activity (PANC-1)	IC50 (PANC-1) [nM]	Activity (518A2)	IC50 (518A2) [nM]	Activity (HT-29)	IC50 (HT-29) [nM]	IC50 [3] [nM]	Activity (MCF7/Topo)
O=C1/C(=C/c2ccc(S(F)(F)(F)(F)F)cc2)CSC/C1=C\c1ccc(S(F)(F)(F)(F)F)cc1	Dose-dependent effect	750	Dose-dependent effect	640	Dose-dependent effect	2100	570	Dose-dependent effect	Dose-dependent effect	840	Dose-dependent effect	850	Dose-dependent effect	980	760	Dose-dependent effect
CCN1C/C(=C\c2cc(F)cc(F)c2)C(=O)/C(=C/c2cc(F)cc(F)c2)C1	Dose-dependent effect	640	Dose-dependent effect	550	–	–	2700	Dose-dependent effect	Dose-dependent effect	1100	Dose-dependent effect	3300	Dose-dependent effect	2100	1000	Dose-dependent effect
CCN1C/C(=C\c2ccc(F)cc2F)C(=O)/C(=C/c2ccc(F)cc2F)C1	Dose-dependent effect	960	Dose-dependent effect	2000	–	–	1200	Dose-dependent effect	Dose-dependent effect	2300	Dose-dependent effect	2400	Dose-dependent effect	3100	1800	Dose-dependent effect
O=C1/C(=C/c2ccc(S(F)(F)(F)(F)F)cc2)CCC/C1=C\c1ccc(S(F)(F)(F)(F)F)cc1	Dose-dependent effect	860	Dose-dependent effect	710	Dose-dependent effect	3200	1900	Dose-dependent effect	Dose-dependent effect	2000	Dose-dependent effect	1800	Dose-dependent effect	1100	1800	Dose-dependent effect
CCN1C/C(=C\c2c(F)cc(F)cc2F)C(=O)/C(=C/c2c(F)cc(F)cc2F)C1	Dose-dependent effect	1400	Dose-dependent effect	1100	–	–	1200	Dose-dependent effect	Dose-dependent effect	1300	Dose-dependent effect	2000	Dose-dependent effect	2000	2100	Dose-dependent effect
CN1C/C(=C\c2ccc(F)c(F)c2)C(=O)/C(=C/c2ccc(F)c(F)c2)C1	Dose-dependent effect	470	Dose-dependent effect	510	–	–	990	Dose-dependent effect	Dose-dependent effect	1500	Dose-dependent effect	1500	Dose-dependent effect	1500	1300	Dose-dependent effect
O=C(/C=C/c1ccc(S(F)(F)(F)(F)F)cc1)/C=C/c1ccc(S(F)(F)(F)(F)F)cc1	Dose-dependent effect	3200	Dose-dependent effect	1000	Dose-dependent effect	8700	3600	Dose-dependent effect	Dose-dependent effect	3100	Dose-dependent effect	4400	Dose-dependent effect	1800	3400	Dose-dependent effect
CCN1C/C(=C\c2cc(F)c(F)cc2F)C(=O)/C(=C/c2cc(F)c(F)cc2F)C1	Dose-dependent effect	520	Dose-dependent effect	510	–	–	640	Dose-dependent effect	Dose-dependent effect	830	Dose-dependent effect	1500	Dose-dependent effect	690	1100	Dose-dependent effect
O=C1/C(=C/c2ccc(F)c(F)c2)CSC/C1=C\c1ccc(F)c(F)c1	Dose-dependent effect	1800	Dose-dependent effect	2000	Dose-dependent effect	2300	760	Dose-dependent effect	Dose-dependent effect	2100	Dose-dependent effect	1500	Dose-dependent effect	1300	1600	Dose-dependent effect
CN1C/C(=C\c2ccccc2F)C(=O)/C(=C/c2ccccc2F)C1	Dose-dependent effect	810	Dose-dependent effect	1300	–	–	1800	Dose-dependent effect	Dose-dependent effect	2200	Dose-dependent effect	1800	Dose-dependent effect	2200	2300	Dose-dependent effect
CCN1C/C(=C\c2ccccc2F)C(=O)/C(=C/c2ccccc2F)C1	Dose-dependent effect	930	Dose-dependent effect	1800	–	–	3100	Dose-dependent effect	Dose-dependent effect	1700	Dose-dependent effect	1800	Dose-dependent effect	5200	2000	Dose-dependent effect
